Where a name gives a salt, the structure may show the parent alone. Read-outs that look alike come from different tables or passages of the source.
Legend:
[1] = Crystallisation peak temperature on heating (Tn), DSC; format: physicochemical; conditions: for Tn (16° C./min): 1% salt deposited from solution on PET; for Tn (16° C./min) / Tn(comp.)-Tn(PET) (16° C./min): pressed 280 °C 1 minute, heating rate 16 °C/minute; for Tn: 1% salt on PET I.V. 0.73 from solution; for nucleating activity: in words; for Tn(comp.)-Tn(PET) (16° C./min): 1% salt deposited from solution on PET chip; for Tn(composition)-Tn(polyester): PET I.V. 0.73 + 1% salt, 2-roll mill 300 °C 2 min, 10 °C/minute
Method: In one such DSC technique the crystallisation peak temperature difference, Tn(composition)--Tn(polyester) is determined by measuring the crystallisation peak temperatures on heating for the composition in comparison with the polyester of the composition not containing the ionisable salt. The detailed procedure is as follows. Compositions were prepared from the polyester and the additive by mixing on a 2-roll mill at 300° C. for 2 minutes. The sample was taken from the mill and pressed into a film in a compression moulding machine. 10 mg samples of the composition were placed in a capsule, rapidly heated to 290° C. and maintained at that temperature for 1 minute. The capsule was then dropped into water to quench the polymer and prevent crystallisation. The sample was then placed in a Perkin Elmer DSC 2 machine and heated at a rate of 10° C./minute until reaching a temperature of 290° C. The crystallisation peak temperature observed on this heating cycle is recorded and compared with the value for the polyester not containing the additive.
Samples of polyethylene terephthalate (I.V. =0.73) containing 1% of the salts listed in Table 2 were prepared by compounding at 300° C. on a 2-roll mill for 2 minutes. The samples were evaluated to determine Tn(composition-Tn(polyester), the total number of end groups, the number of carboxylate groups and the number of hydroxyl and carboxyl groups.
The salts listed in Table 3 were deposited from solution on the surface of polyethylene terephthalate chip to give a concentration of 1% by weight of salt. The product was dried under vcuum at 96° C. for 3 hours. The compositions were pressed into film using a temperature of 280° C. for 1 minute. The DSC measurements were made after quenching from the melt to prevent crystallisation and using a heating rate of 16° C./minute.
1% by weight of the sodium salt of saccharin was deposited on the surface of granules of a polyethylene terephthalate homopolymer of I.V. =0.73 by evaporating an aqueous solution of the salt from the granules by drying at 96° C. under vacuum for 3 hours. The granules obtained were compression moulded into film by pressing at 280° C. for 60 second. The film was used for measurements of Tn at a heating rate of 16° C./minute.
The effect of the salts listed in Table 4 was determined by taking granules of a polymer of poly(ethylene terephthalate) homopolymer having an intrinsic viscosity of 0.73 and evaporating a solution of the salt in methanol or water from the surface of the granules by drying at 96° C. under vacuum for 3 hours. The proportions of polymer and solution used were such as to give a concentration of 1% of salt by weight of the final dry composition. The granules obtained were compression-moulded into film at 280° C. for various periods of time. The film was used for measurement of Tn as hereinbefore described.
Two samples of polyethylene terephthalate chip (I.V. =0.73) were coated from solution with 1% of the sodium salt of o-hydroxybenzoic acid and the disodium salt of the same acid respectively. After drying for 3 hours in a vacuum oven at 95° C. films were prepared by pressing the products for 1 minute at 280° C.

[2] = End group determination; format: physicochemical
Method: The numbers of hydroxyl and carboxyl groups were also determined according to the procedure given in this paper.
[…] The samples were evaluated to determine Tn(composition-Tn(polyester), the total number of end groups, the number of carboxylate groups and the number of hydroxyl and carboxyl groups.

[3] = Half-crystallisation time (t1/2), isothermal DSC; format: physicochemical
Method: A DSC 2 Perkin Elmer scanning calorimeter was used.
10 mg of the sample of polymer material are placed in a capsule and introduced into the apparatus, wherein the sample is quickly heated to a temperature of 290° C. at which it is maintained during 1 minute.
The molten polymer material is then very quickly cooled by means of liquid air (at a rate of 320° C. per minute) until the crystallisation temperature is reached.
The crystallisation isotherm is registered on a temperature-time graph and the peak appearing on the registered isotherm is taken as the half-crystallisation time (t1/2).

[4] = Degradation constant K (melt degradation performance); format: physicochemical; parameters: unit not given here; conditions: 1% salt in PET, 2-roll mill 270 °C 5 min; molten state 290 °C
Method: The melt degradation performance is a measure of the extent of degradation under molten conditions. A convenient method of quantifying the performance is by measuring the "K value". A method for determining this value in the molten state using an Instron Capillary rheometer is given in a paper by J. Devaux et al in Makromol.
This method is carried out on samples prepared by reacting the salt with the polyester on a 2 roll-mill at a temperature above the melting point of the polyester for 5 minutes and then pressing the product obtained into a 2 mm thick sheet using the same temperature for 3 minutes before cooling to room temperature. The method is described for polyethylene terephthalate but can be readily adapted for other polyesters.
For polyethylene terephthalate the K value in the presence of salt should be less than 60.

[5] = ΔT = Tc(cooling) - Tn(heating), DSC; format: physicochemical; conditions: 1% salt in PET, 2-roll mill 270 °C 5 min; 10 °C/minute
Method: An alternative method for assessing the effectiveness of nucleation of an additive is to compare the difference between the value of the crystallisation peak on cooling (Tc) with that on heating (Tn) for a composition containing an ionisable salt. The value obtained from this comparison, Tc(cooling) -Tn(heating) is termed ΔT. […] Samples of polyester together with 1% of the salt under test were mixed in a 2-roll mill at 270° C. for 5 minutes. The sample produced was pressed into 2 mm thick sheets at 270° C. for 3 minutes and then cooled to room temperature. 10 mg of the sample was placed in a capsule and rapidly heated to 290° C. After maintaining this temperature for 1 minute the capsule was quenched in water. The crystallisation peak temperatures on heating (Tn) and cooling (Tc) were determined using heating and cooling rates of 10° C./minute on a Perkin Elmer DSC 2 machine.

[6] = Solubility parameter δ of the acid; conditions: product for the acid
[7] = 1% salt deposited from solution on PET chip, pressed 280 °C 1 minute
[8] = PET I.V. 0.73 + 1% salt, 2-roll mill 300 °C 2 min

O=C([O-])c1cccc2ccccc12.[Na+]
Tn (16° C./min) [1]: 111 °C

O=[PH](O)C1CCCCC1 [Calcium cyclohexyl phosphinate]
Tn (16° C./min) [1]: 129 °C

O=C([O-])c1ccc(C(=O)[O-])cc1.[Na+].[Na+] [Disodium terephthalate, reference compound]
Tn ([1]; time in press 30 sec at 280 °C): 141 °C | Tn ([1]; time in press 60 sec at 280 °C): 140 °C | nucleating activity [1]: only slight nucleating activity

O=C(O)c1ccccc1C(=O)O [Potassium hydrogen orthophthalate, reference compound]
Tn ([1]; time in press 30 sec at 280 °C): 142.5 °C | Tn ([1]; time in press 60 sec at 280 °C): 144.5 °C

COC(=O)c1ccc(C(=O)[O-])cc1.[K+] [Potassium monomethyl terephthalate, reference compound]
Tn ([1]; time in press 30 sec at 280 °C): 138.5 °C | Tn ([1]; time in press 60 sec at 280 °C): 137.5 °C | nucleating activity [1]: only slight nucleating activity

O=C([O-])c1cccc2c(O)cccc12.[Na+] [Sodium 5-hydroxy-1-naphthoate]
Tn (16° C./min) [1]: 132 °C

O=C([O-])c1ccc2cc(O)ccc2c1.[Na+] [Sodium 6-hydroxy-2-naphthoate]
Tn (16° C./min) [1]: 116 °C

COc1ccc2cc(C(=O)[O-])ccc2c1.[Na+] [Sodium 6-methoxy-2-naphthoate]
Tn (16° C./min) [1]: 119 °C

O=C([O-])c1cccc2cccc(Br)c12.[Na+] [Sodium 8-bromo-1-naphthoate]
Tn (16° C./min) [1]: 124 °C

COC(=O)c1ccc(C(=O)[O-])cc1.[Na+] [Sodium monomethyl terephthalate, reference compound]
Tn ([1]; time in press 60 sec at 280 °C): 132 °C | nucleating activity [1]: only slight nucleating activity

O=[PH](O)c1ccccc1 [Sodium phenyl phosphinate]
Tn (16° C./min) [1]: 117 °C | End Groups --COOH [2, 7]: 25 moles × 10^-6 g^-1 | End Groups --OH [2, 7]: 66 moles × 10^-6 g^-1

O=C(O)c1ccccc1-c1ccccc1 [Sodium salt of 2-biphenylcarboxylic acid]
Tn(comp.)-Tn(PET) (16° C./min) [1]: 22 °C | Tn (16° C./min) [1]: 121 °C | End Groups --COOH [2, 7]: 26 moles × 10^-6 g^-1 | End Groups --OH [2, 7]: 60 moles × 10^-6 g^-1 | End Groups Total from solution I.V. [2, 7]: 133 moles × 10^-6 g^-1

O=C(O)c1ccc2ccccc2c1 [Sodium salt of 2-naphthoic acid]
Tn(comp.)-Tn(PET) (16° C./min) [1]: 25 °C | Tn (16° C./min) [1]: 120 °C | End Groups --COOH [2, 7]: 31 moles × 10^-6 g^-1 | End Groups --OH [2, 7]: 60 moles × 10^-6 g^-1 | End Groups Total from solution I.V. [2, 7]: 121 moles × 10^-6 g^-1

O=C(O)c1ccc(-c2ccccc2)cc1 [Sodium salt of 4-biphenylcarboxylic acid]
Tn(comp.)-Tn(PET) (16° C./min) [1]: 16 °C | Tn (16° C./min) [1]: 131 °C | End Groups --COOH [2, 7]: 31 moles × 10^-6 g^-1 | End Groups --OH [2, 7]: 61 moles × 10^-6 g^-1 | End Groups Total from solution I.V. [2, 7]: 107 moles × 10^-6 g^-1

O=C(O)c1ccccc1[N+](=O)[O-] [ortho-nitrobenzoic acid]
t1/2 (sec) 110° C. ([3]; 110 °C, 1% salt in PET, 2-roll mill 270 °C 5 min, after melting 1 minute at 290 °C): 65 s | t1/2 (sec) 120° C. ([3]; 120 °C, 1% salt in PET, 2-roll mill 270 °C 5 min, after melting 1 minute at 290 °C): 45 s | K [4]: 20 | ΔT [5]: 106 °C | δ × pKH.sbsb.2O [6]: 30

O=C([O-])Cc1cccc2ccccc12.[Na+] [sodium 1-naphthylacetate]
t1/2 (sec) 110° C. [3]: 55 s | t1/2 (sec) 120° C. [3]: 30 s | K [4]: 30

O=C([O-])c1c(Cl)cccc1Cl.[Na+] [sodium 2,6-dichlorobenzoate]
Tn(composition)-Tn(polyester) [1]: 25 °C | % of carboxylate end group [2, 8]: 9.8% | End Groups --COOH [2, 8]: 51 moles × 10^-6 g^-1 | End Groups --OH [2, 8]: 56 moles × 10^-6 g^-1 | End Groups Carboxylate [2, 8]: 15 moles × 10^-6 g^-1 | End Groups Total from solution I.V. [2, 8]: 153 moles × 10^-6 g^-1

O=C([O-])c1c(O)cccc1O.[Na+] [sodium 2,6-dihydroxybenzoate]
Tn(composition)-Tn(polyester) [1]: 24 °C | % of carboxylate end group [2, 8]: 3.9% | End Groups --COOH [2, 8]: 55 moles × 10^-6 g^-1 | End Groups --OH [2, 8]: 69 moles × 10^-6 g^-1 | End Groups Carboxylate [2, 8]: 5 moles × 10^-6 g^-1 | End Groups Total from solution I.V. [2, 8]: 127 moles × 10^-6 g^-1

O=C([O-])c1cc(O)cc(O)c1.[Na+] [sodium 3,5-dihydroxybenzoate]
Tn(composition)-Tn(polyester) [1]: 7 °C | % of carboxylate end group [2, 8]: 0% | End Groups Carboxylate [2, 8]: 0 moles × 10^-6 g^-1 | End Groups Total from solution I.V. [2, 8]: 138 moles × 10^-6 g^-1

O=C([O-])c1ccc(O)cc1.[Na+] [sodium p-hydroxybenzoate]
Tn(composition)-Tn(polyester) [1]: 20 °C | % of carboxylate end group [2, 8]: 2.7% | End Groups --COOH [2, 8]: 102 moles × 10^-6 g^-1 | End Groups --OH [2, 8]: 64 moles × 10^-6 g^-1 | End Groups Carboxylate [2, 8]: 4 moles × 10^-6 g^-1 | End Groups Total from solution I.V. [2, 8]: 148 moles × 10^-6 g^-1

O=C([O-])Cc1ccccc1.[Na+] [sodium phenylacetate]
t1/2 (sec) 110° C. [3]: 55 s | t1/2 (sec) 120° C. [3]: 30 s | K [4]: less than 15

— US4393178A, “Fast crystallizing polyester compositions” (priority 1979, dated 1983)
